Results on five molecules are retold here after US6989375B2, “Enhanced expression of transgenes” (priority 1996, dated 2006).

The first assay concerns H1299 cells. Put plainly: β-gal expression by X-gal staining after Ad/CMV/β-gal infection of agent-treated cells. Format: cell-based, human. As to conditions: drugs at 0.062 μg/ml or irradiated with 8 Greys; stained 24 hrs after infection. On the procedure: Gene Delivery Protocol: In vitro gene delivery was performed by incubating cells in six-well plates (Falcon Plastics, Lincoln Park, N.J.) for two hours with Adv/CMV/β-gal in appropriate medium supplemented with 2% FCS. The multiplicity of infection (MOI: number of viral particles per target cell) was based on cell counts of untreated wells. Fresh, complete medium with the appropriate concentration of FCS was then added to the wells at the end of the infection period and cells were then incubated for 20 hours at 37° C., 5% CO2. After washing the cells with ice cold PBS, the cells were fixed with ice-cold 1.25% glutaraldehyde and stained with X-gal (5-bromo-4-chloro-3-indolyl-β-d-galactoside; Gibco BRL) as previously described (MacGregor et al., 1987). The transduction efficiency by Adv/CMV/β-gal was determined by the percentage of positive stained cells (blue) for β-galactosidase activity (1000 cells counted per well).
Time Course and Dose Response: To determine the time course of enhancement, H1299 and H460 cells were seeded in 6-well plates (2×10^5 cells/2 mls/well). After an overnight incubation period (37° C., 5% CO2), the initial medium was replaced with freshly prepared media (2 ml) containing 0.062 μg/ml CDDP (Sigma Chemicals, St. Louis, Mo.) (CDDP was prepared fresh by dissolving in distilled water) and the cells were then incubated for 24 hours at 37° C., with 5% CO2. CDDP-treated cells were then washed twice with PBS and subsequently infected with Ad/CMV/β-gal (MOI=1 for H1299 and MOI=5 for H460) on days 0, 1, 2, 3, 4, 5 or 6 following CDDP removal, to determine the time point at which maximal enhancement of expression was occurring. To establish the dose of CDDP needed to produce maximum enhancement, the cells were treated with different concentrations of CDDP (serial, 1:4 dilutions, ranging from 4 μg/ml to 0.0002 μg/ml, 5 ml per 60 mm dish) for 24 hours and subsequently incubated with Ad/CMV/β-gal 48 hours after removal of CDDP. To study if exposure of malignant cells to different classes of antineoplastic agents would lead to a similar elevation of gene expression, H1299 cells were treated with vincristine (Eli Lilly and Co, Indianapolis, Ind.), methotrexate (Lederle Pharmaceuticals, Pearl River, N.Y.), 5-fluorouracil (SoloPak Laboratories, Elk Grove Village, Ill.), epotoside (Bristol Laboratories, Princeton, N.J.) and transplatin (the isomer of CDDP that has no anticancer activity, Sigma Chemical, St. Louis, Mo.) in the similar fashion as CDDP treatment and then infected with Ad/CMV/β-gal 48 hours after removal of drug-containing media. H1299 cells were treated with 2, 4, 8, or 16 Grey (Gy) of ionizing irradiation and then similarly infected 72 hours after irradiation. Untreated cells that were similarly infected, served as controls.
For `COc1cc([C@@H]2c3cc4c(cc3[C@@H](O[C@@H]3O[C@@H]5CO[C@@H](C)O[C@H]5[C@H](O)[C@H]3O)[C@H]3COC(=O)[C@H]23)OCO4)cc(OC)c1O` [VP-16, etoposide], the “Enhancement of β-gal expression (FIG. 3)” value was “Enhancement of β-gal expression was observed”.

The assay is the same for the next values; noted with them: wide range of drug concentrations, 24 h; infected with Ad/CMV/β-gal 48 hours after drug removal.
In the case of `CN(Cc1cnc2nc(N)nc(N)c2n1)c1ccc(C(=O)N[C@@H](CCC(=O)O)C(=O)O)cc1` [methotrexate], the “Enhancement of β-gal gene expression after treatment with antineoplastic agent” value was “did not result in enhanced gene expression”. Same read-out and setting: with `N.N.[Cl][Pt+2][Cl]` [transplatinum] the entry was “did not result in enhanced gene expression”; with `CC[C@]1(O)C[C@H]2CN(CCc3c([nH]c4ccccc34)[C@@](C(=O)OC)(c3cc4c(cc3OC)N(C=O)[C@H]3[C@@](O)(C(=O)OC)[C@H](OC(C)=O)[C@]5(CC)C=CCN6CC[C@]43[C@@H]65)C2)C1` [vincristine], “did not result in enhanced gene expression”; with `O=c1[nH]cc(F)c(=O)[nH]1` [5-fluorouracil], “did not result in enhanced gene expression”. As for `COc1cc([C@@H]2c3cc4c(cc3[C@@H](O[C@@H]3O[C@@H]5CO[C@@H](C)O[C@H]5[C@H](O)[C@H]3O)[C@H]3COC(=O)[C@H]23)OCO4)cc(OC)c1O` [VP-16, etoposide], the “Enhancement of β-gal gene expression after treatment with antineoplastic agent” value is on record as “enhanced gene expression”.
